Measured values: article PMC5011342, “A high throughput drug screening assay to identify compounds that promote oligodendrocyte differentiation using acutely dissociated and purified oligodendrocyte precursor cells” (BMC Research Notes, 2016)
Read-outs that look alike come from different tables or passages of the source.

Experiments:
[1] = tested on: expanded OPCs; experiment: cells; settings: for viability at 0.1 µM / viability at 1 µM / viability at 10 µM: Rattus norvegicus, 72 h; for 0.1 µM (% DMSO) / 1 µM (% DMSO) / 10 µM (% DMSO): alamarBlue viability of expanded OPCs, relative to DMSO control; for 0.1 µM (% DMSO): compound at 0.1 µM; for 1 µM (% DMSO): compound at 1 µM; for 10 µM (% DMSO): compound at 10 µM
Outline: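 Expanded OPCs seeded at 10,000 cells/well in differentiation media, then exposed to NCC library compounds at 10, 1 and 0.1 µM (quadruplicate, 0.1% DMSO) for three days. Viability read as alamarBlue fluorescence (560/590 nm) after 4 h at 37 °C; tunicamycin 5 ng/ml served as toxicity control.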

[2] = tested on: acutely dissociated and purified rat OPCs; experiment: Acute OL differentiation assay (MBP expression/cell, immunofluorescent image quantification); assay type: cell-based; settings: for activation at 2 µM / activation at 10 µM / activation at 0.4 µM / activation at 0.08 µM: sheet "All OLga data"; for activation at 0.4 µM: 0.4 uM test compound, read-out: OL differentiation, 0.4 uM (% Quet); for activation at 0.08 µM: 0.08 uM test compound, read-out: OL differentiation, 0.08 uM (% Quet)
Outline: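 Oligodendrocyte precursor cells were enriched from P6-P7 Sprague–Dawley rat brains by immunopanning (RAN-2 and GalC depletion, O4 selection), plated at 5000 cells/well in serum-free, mitogen-free differentiation media on PDL/laminin 96-well view plates, centrifuged at 200×g, and pre-incubated 1–2 h before test compounds were added in quadruplicate. On DIV4, cells were fixed, stained for MBP and DAPI, imaged automatically, and MBP expression per cell was quantified.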

[3] = read-out: 0.1 µM (% DMSO), alamarBlue viability of expanded OPCs, compound at 0.1 µM, sheet All Tox data
[4] = read-out: 1 µM (% DMSO), alamarBlue viability of expanded OPCs, compound at 1 µM, sheet All Tox data
[5] = read-out: 10 µM (% DMSO), alamarBlue viability of expanded OPCs, compound at 10 µM, sheet All Tox data
[6] = Rattus norvegicus, 2 uM test compound, relative to quetiapine, read-out: OL differentiation, 2 uM (% Quet)
[7] = Rattus norvegicus, 10 uM test compound, relative to quetiapine, read-out: OL differentiation, 10 uM (% Quet)
[8] = Rattus norvegicus, relative to quetiapine
[9] = Rattus norvegicus, test compound at 2 uM, NCC library screen, relative to quetiapine, read-out: 2 uM (% Quet)
[10] = Rattus norvegicus, test compound at 10 uM, NCC library screen, relative to quetiapine, read-out: 10 uM (% Quet)
[11] = read-out: 0.1 µM (% DMSO), alamarBlue viability, NCC library compound at 0.1 µM, sheet "All Tox data"
[12] = read-out: 1 µM (% DMSO), alamarBlue viability, NCC library compound at 1 µM, sheet "All Tox data"
[13] = read-out: 10 µM (% DMSO), alamarBlue viability, NCC library compound at 10 µM, sheet "All Tox data"

SMILES	viability at 0.1 µM [1, 3] [%]	viability at 1 µM [1, 4] [%]	viability at 10 µM [1, 5] [%]	activation at 2 µM [2, 6] [%]	activation at 10 µM [2, 7] [%]	further results
CCCc1nc(C(C)(C)O)c(C(=O)O)n1Cc1ccc(-c2ccccc2-c2nnn[nH]2)cc1 [Olmesartan]	91.4	87.4	93.9	-15.6	-11.9	
COc1ccc2c(c1)[C@]13CCCC[C@@H]1[C@H](C2)N(C)CC3 [Dextromethorphan]	82.6	86.9	59.6	44.5		activation at 0.4 µM [2, 8]: 10.5%
C[C@]12CCC(=O)C[C@@H]1CC[C@@H]1[C@@H]2CC[C@@]2(C)[C@H]1CC[C@]2(C)O [Mestanolone]	102	94.1	120	0.8	-18	
CC(C)Oc1ccc2c(=O)c(-c3ccccc3)coc2c1 [Ipriflavone]	87.3	92.1	117	22.5	32	
CC(=O)Nc1nnc(S(N)(=O)=O)s1 [Acetazolamide]						0.1 µM (% DMSO) [1]: 89.2 % DMSO; 1 µM (% DMSO) [1]: 90.6 % DMSO; 10 µM (% DMSO) [1]: 87.5 % DMSO; activation at 2 µM [2, 9]: -8.7%; activation at 10 µM [2, 10]: -43.8%
Nc1nc2ncc(CNc3ccc(C(=O)N[C@@H](CCC(=O)O)C(=O)O)cc3)nc2c(=O)[nH]1 [Folic acid]						0.1 µM (% DMSO) [1]: 110.4 % DMSO; 1 µM (% DMSO) [1]: 104.7 % DMSO; 10 µM (% DMSO) [1]: 104.5 % DMSO; activation at 2 µM [2, 9]: -16.1%; activation at 10 µM [2, 10]: -12.9%
CCC1=C[C@@H]2CN(C1)Cc1c([nH]c3ccccc13)[C@@](C(=O)OC)(c1cc3c(cc1OC)N(C)[C@H]1[C@@](O)(C(=O)OC)[C@H](OC(C)=O)[C@]4(CC)C=CCN5CC[C@]31[C@@H]54)C2 [Vinorelbine]						viability at 0.1 µM [1, 11]: 56.8%; viability at 1 µM [1, 12]: 34.4%; viability at 10 µM [1, 13]: 11.1%; activation at 0.08 µM [2, 8]: -20.7%; activation at 0.4 µM [2, 8]: -107%
O=C(N[C@H](CO)[C@H](O)c1ccc([N+](=O)[O-])cc1)C(Cl)Cl [Chloramphenicol]						0.1 µM (% DMSO) [1]: 87.1 % DMSO; 1 µM (% DMSO) [1]: 93.2 % DMSO; 10 µM (% DMSO) [1]: 90.9 % DMSO; activation at 2 µM ([2]; Rattus norvegicus, test compound at 2 uM, MBP expression relative to quetiapine, NCC library screen, read-out: 2 uM (% Quet)): 9.3%; activation at 10 µM ([2]; Rattus norvegicus, test compound at 10 uM, MBP expression relative to quetiapine, NCC library screen, read-out: 10 uM (% Quet)): 1.1%
CC(C)NCC(O)COc1ccc(CCOCC2CC2)cc1 (stereo not shown) [Betaxolol, reference compound]				32.8	51.8	viability at 0.1 µM [1, 11]: 102%; viability at 1 µM [1, 12]: 97.8%; viability at 10 µM [1, 13]: 104%; EC50 ([2]; Rattus norvegicus, average EC50 for induction of OL differentiation from independent biological replicates, eight concentrations): 4.2 µM; hit in OL differentiation assay, MRF-TMC ([2]; ● = confirmed hit in this paper's assay): ●
CC1=NS(=O)(=O)c2cc(Cl)ccc2N1 [Diazoxide]						viability at 0.1 µM [1, 11]: 98.9%; viability at 1 µM [1, 12]: 86.5%; viability at 10 µM [1, 13]: 82.6%; activation at 2 µM [2, 9]: -1.9%; activation at 10 µM [2, 10]: -7.1%
NC(=O)OCCCc1ccccc1 [Phenprobamate]	96	95.1	92.7	26.9	12.1	
CCC(COC(=O)c1cc(OC)c(OC)c(OC)c1)(c1ccccc1)N(C)C (stereo not shown) [Trimebutine]	113	135	147	31.4	-25.8	
O=c1c(O[C@@H]2O[C@H](CO)[C@H](O)[C@H](O)[C@H]2O)c(-c2ccc(O)c(O)c2)oc2cc(O)cc(O)c12 [Hyperoside]	90.3	29.8	14.6			activation at 0.08 µM [2, 8]: -14.3%; activation at 0.4 µM [2, 8]: -70.9%
